According to ChEMBL document CHEMBL6109152, “Harnessing the SPOP E3 Ubiquitin Ligase via a Bridged Proteolysis Targeting Chimera (PROTAC) Strategy for Targeted Protein Degradation” (J Med Chem, 2025):
pKd: −log10 of the molar value. The source made the active and inactive calls. The rule behind the calls is not given here.

Legend:
[1] = target: T1, Speckle-type POZ protein-Bromodomain-containing protein 2 (Homo sapiens) (UniProt P25440+O43791); assay: PROTAC activity at SPOP/BRD2 in human HT-29 cells assessed as induction of BRD2 degradation by measuring fold change at 2.5 uM incubated for 24 hrs by Western blot analysis (reference value: 1.00); format: cell-based
[2] = target: T2, Speckle-type POZ protein-Bromodomain-containing protein 3 (Homo sapiens) (UniProt Q15059+O43791); assay: PROTAC activity at SPOP/BRD3 in human HT-29 cells assessed as induction of BRD3 degradation by measuring fold change at 0.156 uM incubated for 24 hrs by Western blot analysis (reference value: 1.00); format: cell-based
[3] = target: T2, Speckle-type POZ protein-Bromodomain-containing protein 3 (Homo sapiens); assay: PROTAC activity at SPOP/BRD3 in human HT-29 cells assessed as induction of BRD3 degradation by measuring fold change at 5 uM incubated for 24 hrs by Western blot analysis (reference value: 1.00); format: cell-based
[4] = target: T3, Speckle-type POZ protein-Bromodomain-containing protein 4 (Homo sapiens, UniProt O60885+O43791); assay: PROTAC activity at SPOP/BRD4-L in human HT-29 cells assessed as induction of BRD4 long isoform degradation by measuring fold change at 0.625 uM incubated for 24 hrs by Western blotting analysis (reference value: 1.00); format: cell-based
[5] = target: T4, Bromodomain-containing protein 4 (Homo sapiens, UniProt O60885); assay: Inhibition of BRD4 in human HT-29 cells assessed as decrease in c-MYC protein level at 5 uM measured after 16 hrs by Western blot analysis relative to control; format: cell-based
[6] = target: T1, Speckle-type POZ protein-Bromodomain-containing protein 2 (Homo sapiens); assay: PROTAC activity at SPOP/BRD2 in human HT-29 cells assessed as induction of BRD2 degradation by measuring fold change at 10 uM incubated for 24 hrs by Western blot analysis (reference value: 1.00); format: cell-based
[7] = target: T3, Speckle-type POZ protein-Bromodomain-containing protein 4; assay: PROTAC activity at SPOP/BRD4-S in human MDA-MB-231 cells assessed as induction of BRD4 short isoform degradation at 0.1 to 5 uM incubated for 24 hrs by Western blotting analysis; format: cell-based; details: dose 0.1-5 µM
[8] = target: T1, Speckle-type POZ protein-Bromodomain-containing protein 2 (Homo sapiens); assay: PROTAC activity at SPOP/BRD2 in human MDA-MB-231 cells assessed as induction of BRD2 degradation at 0.1 to 5 uM incubated for 24 hrs by Western blot analysis; format: cell-based; details: dose 0.1-5 µM
[9] = target: T1, Speckle-type POZ protein-Bromodomain-containing protein 2 (Homo sapiens); assay: PROTAC activity at SPOP/BRD2 in human HT-29 cells assessed as induction of BRD2 degradation by measuring fold change at 5 uM incubated for 24 hrs by Western blot analysis (reference value: 1.00); format: cell-based
HT-29 [10] = assay: Downregulation of c-MYC mRNA level in human HT-29 cells at 5 to 10 uM incubated for 24 hrs by RT-qPCR analysis; format: functional, cell-based; details: dose 5-10 µM
[11] = target: T4, Bromodomain-containing protein 4; assay: Inhibition of BRD4 in human HT-29 cells assessed as decrease in c-MYC protein level by measuring fold change at 1.25 uM incubated for 24 hrs by Western blot analysis (reference value: 1.00); format: cell-based
[12] = target: T3, Speckle-type POZ protein-Bromodomain-containing protein 4; assay: PROTAC activity at SPOP/BRD4-L in human HT-29 cells assessed as induction of BRD4 long isoform degradation by measuring fold change at 5 uM incubated for 24 hrs by Western blotting analysis (reference value: 1.00); format: cell-based
[13] = target: T4, Bromodomain-containing protein 4; assay: Inhibition of BRD4 in human HT-29 cells assessed as decrease in c-MYC protein level by measuring fold change at 0.313 uM incubated for 24 hrs by Western blot analysis (reference value: 1.00); format: cell-based
[14] = target: T2, Speckle-type POZ protein-Bromodomain-containing protein 3 (Homo sapiens); assay: PROTAC activity at SPOP/BRD3 in human HT-29 cells assessed as induction of BRD3 degradation by measuring fold change at 10 uM incubated for 24 hrs by Western blot analysis (reference value: 1.00); format: cell-based
[15] = target: T3, Speckle-type POZ protein-Bromodomain-containing protein 4; assay: PROTAC activity at SPOP/BRD4-L in human HT-29 cells assessed as induction of BRD4 long isoform degradation by measuring fold change at 0.313 uM incubated for 24 hrs by Western blotting analysis (reference value: 1.00); format: cell-based
HEK293T = assay: Binding affinity to BRD4-L/GLP/SPOP in HEK293T cells assessed as compound-BRD4-GLP-SPOP quaternary complex formation at 20 to 100 uM incubated for 1 hrs by pulldown based Western blot analysis; format: cell-based; details: Homo sapiens, dose 20-100 µM
[16] = target: T2, Speckle-type POZ protein-Bromodomain-containing protein 3 (Homo sapiens); assay: PROTAC activity at SPOP/BRD3 in human HT-29 cells assessed as induction of BRD3 degradation by measuring fold change at 0.313 uM incubated for 24 hrs by Western blot analysis (reference value: 1.00); format: cell-based
HT-29 [17] = assay: Effect on BRD4 long isoform mRNA level in human HT-29 cells at 1 to 10 uM incubated for 24 hrs by RT-qPCR analysis; format: functional, cell-based; details: dose 1-10 µM
[18] = target: T1, Speckle-type POZ protein-Bromodomain-containing protein 2 (Homo sapiens); assay: PROTAC activity at SPOP/BRD2 in human HT-29 cells assessed as induction of BRD2 degradation at 5 uM measured after >=48 hrs by Western blot analysis; format: cell-based
[19] = target: T2, Speckle-type POZ protein-Bromodomain-containing protein 3 (Homo sapiens); assay: PROTAC activity at SPOP/BRD3 in human HT-29 cells assessed as induction of BRD3 degradation by measuring fold change at 1.25 uM incubated for 24 hrs by Western blot analysis (reference value: 1.00); format: cell-based
[20] = target: T3, Speckle-type POZ protein-Bromodomain-containing protein 4; assay: PROTAC activity at SPOP/BRD4-S in human HT-29 cells assessed as induction of BRD4 short isoform degradation by measuring fold change at 2.5 uM incubated for 24 hrs by Western blotting analysis (reference value: 1.00); format: cell-based
[21] = target: T4, Bromodomain-containing protein 4; assay: Inhibition of BRD4 in human HT-29 cells assessed as decrease in c-MYC protein level by measuring fold change at 10 uM incubated for 24 hrs by Western blot analysis (reference value: 1.00); format: cell-based
[22] = target: T3, Speckle-type POZ protein-Bromodomain-containing protein 4; assay: PROTAC activity at SPOP/BRD4-S in human HT-29 cells assessed as induction of BRD4 short isoform degradation by measuring fold change at 0.313 uM incubated for 24 hrs by Western blotting analysis (reference value: 1.00); format: cell-based
[23] = target: T4, Bromodomain-containing protein 4; assay: Binding affinity to BRD4-BD2 domain (unknown origin) assessed as assessed as dissociation constant by ITC analysis

T2 sequence (O43791 whole entry, looked up): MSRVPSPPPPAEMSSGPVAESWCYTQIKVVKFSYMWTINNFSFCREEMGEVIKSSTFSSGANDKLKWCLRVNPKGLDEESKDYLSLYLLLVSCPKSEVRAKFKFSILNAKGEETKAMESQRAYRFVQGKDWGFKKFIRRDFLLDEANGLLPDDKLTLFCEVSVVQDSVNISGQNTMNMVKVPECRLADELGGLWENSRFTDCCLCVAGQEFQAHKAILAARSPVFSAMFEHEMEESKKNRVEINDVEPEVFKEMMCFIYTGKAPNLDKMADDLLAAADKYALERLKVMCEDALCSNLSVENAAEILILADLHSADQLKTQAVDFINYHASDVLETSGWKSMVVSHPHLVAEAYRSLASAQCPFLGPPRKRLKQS
T2 sequence (Q15059 whole entry, looked up): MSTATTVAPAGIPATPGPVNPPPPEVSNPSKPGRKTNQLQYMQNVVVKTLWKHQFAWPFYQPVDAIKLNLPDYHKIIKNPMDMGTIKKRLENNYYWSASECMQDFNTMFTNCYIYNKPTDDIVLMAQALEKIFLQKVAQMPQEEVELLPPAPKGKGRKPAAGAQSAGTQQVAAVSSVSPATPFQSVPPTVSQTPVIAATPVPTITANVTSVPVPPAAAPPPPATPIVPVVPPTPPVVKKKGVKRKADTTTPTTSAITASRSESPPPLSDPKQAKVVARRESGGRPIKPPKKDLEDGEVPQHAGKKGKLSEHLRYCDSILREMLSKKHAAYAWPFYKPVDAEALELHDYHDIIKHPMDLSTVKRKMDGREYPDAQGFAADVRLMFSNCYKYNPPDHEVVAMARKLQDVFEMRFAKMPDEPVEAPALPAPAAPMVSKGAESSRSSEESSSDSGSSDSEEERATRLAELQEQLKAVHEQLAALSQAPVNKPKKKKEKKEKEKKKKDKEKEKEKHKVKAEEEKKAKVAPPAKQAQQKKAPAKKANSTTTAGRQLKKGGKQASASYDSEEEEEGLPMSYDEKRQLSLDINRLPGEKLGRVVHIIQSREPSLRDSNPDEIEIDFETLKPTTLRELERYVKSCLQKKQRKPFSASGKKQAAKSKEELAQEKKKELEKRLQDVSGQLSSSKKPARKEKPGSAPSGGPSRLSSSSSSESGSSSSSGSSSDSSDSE
T3 sequence (O43791 whole entry, looked up, other chains not shown, canonical isoform): as the sequence (O43791 whole entry, looked up) above
T1 sequence (O43791 whole entry, looked up): as above
T1 sequence (P25440 whole entry, looked up): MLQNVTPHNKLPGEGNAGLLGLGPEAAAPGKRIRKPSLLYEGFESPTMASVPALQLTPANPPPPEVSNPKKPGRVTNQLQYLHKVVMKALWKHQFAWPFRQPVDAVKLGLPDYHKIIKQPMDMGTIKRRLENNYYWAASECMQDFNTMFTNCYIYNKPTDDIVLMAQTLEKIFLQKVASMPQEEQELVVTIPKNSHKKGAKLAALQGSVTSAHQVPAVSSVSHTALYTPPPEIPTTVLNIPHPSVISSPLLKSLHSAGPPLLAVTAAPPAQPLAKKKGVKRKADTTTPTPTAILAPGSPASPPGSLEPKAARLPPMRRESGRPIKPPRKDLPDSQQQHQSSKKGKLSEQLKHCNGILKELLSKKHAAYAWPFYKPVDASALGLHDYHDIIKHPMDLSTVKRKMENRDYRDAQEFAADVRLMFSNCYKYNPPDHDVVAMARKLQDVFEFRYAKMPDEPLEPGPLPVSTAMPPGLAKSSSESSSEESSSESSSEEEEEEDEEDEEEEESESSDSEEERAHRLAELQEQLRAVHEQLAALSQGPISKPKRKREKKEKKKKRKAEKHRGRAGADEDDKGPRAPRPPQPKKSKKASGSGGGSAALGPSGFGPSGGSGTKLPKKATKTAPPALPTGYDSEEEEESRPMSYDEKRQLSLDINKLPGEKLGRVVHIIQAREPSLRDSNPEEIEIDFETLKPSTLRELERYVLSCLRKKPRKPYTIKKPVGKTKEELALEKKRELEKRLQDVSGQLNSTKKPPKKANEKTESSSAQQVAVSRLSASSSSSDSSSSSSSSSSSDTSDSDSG

COc1cc2c(NC3CCN(CCCC(=O)NCCCCCCCCCCNC(=O)C[C@@H]4N=C(c5ccc(Cl)cc5)c5c(sc(C)c5C)-n5c(C)nnc54)CC3)cc(N3CCOCC3)nc2cc1OCCCN1CCCC1
fold change (FC) [1]: 1 | fold change (FC) [2]: 1 | fold change (FC) [3]: 0.6 | fold change (FC) [4]: 1.2 | inhibition [5]: 100% | fold change (FC) [6]: 0.7 | Activity [7]: Active | Activity [8]: Active | fold change (FC) [9]: 0.9 | Activity (HT-29 [10]): Active | fold change (FC) [11]: 0.4 | fold change (FC) [12]: 0.7 | fold change (FC) [13]: 1 | fold change (FC) [14]: 0.5 | fold change (FC) [15]: 1.3 | Activity (HEK293T): Active | fold change (FC) [16]: 0.9 | Activity (HT-29 [17]): inactive | Activity [18]: Active | fold change (FC) [19]: 0.7 | fold change (FC) [20]: 0.5 | fold change (FC) [21]: 0.03 | fold change (FC) [22]: 1.2 | pKd [23]: 6.70
